The conditions of data set [1]: 14C labelled psilocybin, animals; cited from earlier work.
For data set [2] the following is noted: 14C mescaline injected into developing rats; especially in adult animals; cited from earlier work.

As usually defined, the melting point is the temperature, or range, at which the solid turns liquid.

Turning to `CN(C)CCc1c[nH]c2cccc(OP(=O)(O)O)c12` [psilocybin], the “absorption following oral administration” value in data set [1] was below 50%. Turning to `COc1cc(CCN)cc(OC)c1OC` [mescaline, 3,4,5-trimethoxyphenethylamine], the “permeability of the BBB to mescaline” value in data set [2] is given as “nearly impermeable”. In the case of `CCCCCCCC(=O)Oc1ccc2[nH]cc(CCN(C)C)c2c1`, the melting point was in the range of 48.3 to 50.2 °C.

Values taken from US20240238249A1, “Lipidic Nano-Pharmaceuticals” (Huxley Health Inc., priority 2022, published 2024).
